Read-outs that look alike come from different tables or passages of the source.
Tested on: recombinant NL-Rluc virus
Test: microbe, parasite or virus in culture
Type: cell-based, HIV
Conditions: NL-RLuc virus infecting MT-2 cells, 5 days of incubation, luciferase readout, at least 2 experiments, serum condition not given, read-out: EC50
[1] = Human immunodeficiency virus 1, MT2, 120 h

Compound | EC50 [1] [nM] | EC50 [nM]
COC1(C)CCN(c2c([C@H](OC(C)(C)C)C(=O)O)c(C)nc3cc(-c4ncc(Cc5ccc(F)cc5)s4)nn23)CC1 [Example 22, (S)-2-(tert-Butoxy)-2-(2-(5-(4-fluorobenzyl)thiazol-2-yl)-7-(4-methoxy-4-methylpiperidin-1-yl)-5-methylpyrazolo[1,5-a]pyrimidin-6-yl)acetic acid] | 12 | 
Cc1nc2cc(N3CC(Cc4ccccc4)OC3=O)nn2c(N2CCC(C)(C)CC2)c1[C@H](OC(C)(C)C)C(=O)O (stereo partly drawn) [Example 30, (2S)-2-(2-(5-Benzyl-2-oxooxazolidin-3-yl)-7-(4,4-dimethylpiperidin-1-yl)-5-methylpyrazolo[1,5-a]pyrimidin-6-yl)-2-(tert-butoxy)acetic acid] |  | 16
Cc1nc2cc(N3CCN(Cc4ccccc4)C3=O)nn2c(N2CCC(C)(C)CC2)c1[C@H](OC(C)(C)C)C(=O)O [Example 26, (S)-2-(2-(3-Benzyl-2-oxoimidazolidin-1-yl)-7-(4,4-dimethylpiperidin-1-yl)-5-methylpyrazolo[1,5-a]pyrimidin-6-yl)-2-(tert-butoxy)acetic acid] | 145 | 
Cc1nc2cc(-n3cc(Cc4ccccc4)c(Cl)n3)nn2c(N2CCC(C)(C)CC2)c1[C@H](OC(C)(C)C)C(=O)O [Example 38, (S)-2-(2-(4-Benzyl-3-chloro-1H-pyrazol-1-yl)-7-(4,4-dimethylpiperidin-1-yl)-5-methylpyrazolo[1,5-a]pyrimidin-6-yl)-2-(tert-butoxy)acetic acid] | 23 | 
Cc1nc2cc(-c3nc4cc(Cl)ccc4n3C)nn2c(-c2cc(F)c3c(c2C)CCCO3)c1[C@H](OC(C)(C)C)C(=O)O [Example 2, (2S)-2-(tert-Butoxy)-2-(2-(5-chloro-1-methyl-1H-benzo[d]imidazol-2-yl)-7-(8-fluoro-5-methylchroman-6-yl)-5-methylpyrazolo[1,5-a]pyrimidin-6-yl)acetic acid] | 50 | 

Reference: US9580431B2, “Inhibitors of human immunodeficiency virus replication” (priority 2013, dated 2017)
